Test results: patent US7138361B2, “Herbicidal heterocycles” (E. I. du Pont de Nemours and Company, priority 2000, dated 2006)

Columns and labels:
Type in all cases: in vivo
[1] = tested on: blackgrass (Alopecurus myosuroides); experiment: Test B postemergence
Method in brief: (§1)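 Seeds were planted and sprayed preemergence with test chemical in a non-phytotoxic solvent mixture containing surfactant; postemergence plants (2 to 18 cm, 1- to 4-leaf stage) received the same formulation. Greenhouse hold 13 to 15 days, then visual rating versus untreated controls on a 0–100 scale (0 no effect, 100 complete control).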

corn (Zea mays) [2] = experiment: Test B postemergence
Method in brief: as §1

[3] = tested on: velvetleaf (Abutilon theophrasti); experiment: Test B postemergence
Method in brief: as §1

wild oat (Avena fatua) = experiment: Test B postemergence
Method in brief: as §1

[4] = tested on: wheat (Triticum aestivum); experiment: Test B postemergence
Method in brief: as §1

[5] = tested on: johnsongrass (Sorghum halepense); experiment: Test C preemergence; settings: for Plant response rating (0 to 100), Johnsongrass: Rate 500 g/ha, visual evaluation after 12 to 14 days
Method in brief: (§2)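 Seeds are planted and treated before emergence; for the postemergence test, plants at 1- to 4-leaf stage (2–18 cm) receive the same formulation, a solvent blend containing surfactant. Plants stay in the greenhouse 12–14 days, then response is scored visually from 0 (none) to 100 (complete control).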

[6] = tested on: bermudagrass (Cynodon dactylon); experiment: Test C preemergence; settings: for Plant response rating (0 to 100 where 0 is no effect and 100 is complete control), Bermudagrass: Rate 500 g/ha, visual evaluation after 12 to 14 days
Method in brief: as §2

[7] = tested on: morningglory (Ipomoea hederacea); experiment: Test C preemergence; settings: for Plant response rating (0 to 100), Morningglory: Rate 500 g/ha, visual evaluation after 12 to 14 days
Method in brief: as §2

[8] = tested on: woolly cupgrass (Eriochloa villosa); experiment: Test C preemergence; settings: for Plant response rating (0 to 100), Cupgrass, Woolly: Rate 500 g/ha, visual evaluation after 12 to 14 days
Method in brief: as §2

[9] = tested on: giant foxtail (Setaria faberii); experiment: Test C preemergence; settings: for Plant response rating (0 to 100), Foxtail, Giant: Rate 500 g/ha, visual evaluation after 12 to 14 days
Method in brief: as §2

[10] = tested on: crabgrass (Digitaria sanguinalis); experiment: Test C preemergence; settings: for Plant response rating (0 to 100), Crabgrass: Rate 500 g/ha, visual evaluation after 12 to 14 days
Method in brief: as §2

Sunflower = experiment: Test C preemergence; settings: Rate 125 g/ha; scale 0 to 100, 0 no effect, 100 complete control
corn (Zea mays) [11] = experiment: Test C preemergence; settings: for Plant response rating (0 to 100), Corn: Rate 500 g/ha, visual evaluation after 12 to 14 days
Method in brief: as §2

[12] = tested on: velvetleaf (Abutilon theophrasti); experiment: Test C preemergence; settings: for Plant response rating (0 to 100), Velvetleaf: Rate 500 g/ha, visual evaluation after 12 to 14 days
Method in brief: as §2

[13] = tested on: pigweed (Amaranthus retroflexus); experiment: Test C preemergence; settings: for Plant response rating (0 to 100), Pigweed: Rate 500 g/ha, visual evaluation after 12 to 14 days
Method in brief: as §2

soybean (Glycine max) = experiment: Test C preemergence; settings: for Plant response rating (0 to 100), Soybean: Rate 500 g/ha, visual evaluation after 12 to 14 days
Method in brief: as §2

[14] = tested on: goosegrass (Eleusine indica); experiment: Test C preemergence; settings: for Plant response rating (0 to 100), Goosegrass: Rate 500 g/ha, visual evaluation after 12 to 14 days
Method in brief: as §2

[15] = tested on: yellow nutsedge (Cyperus esculentus); experiment: Test C preemergence; settings: for Plant response rating (0 to 100), Nutsedge: Rate 500 g/ha, visual evaluation after 12 to 14 days
Method in brief: as §2

[16] = tested on: lambsquarters (Chenopodium album); experiment: Test C preemergence; settings: for Plant response rating (0 to 100), Lambsquarters: Rate 500 g/ha, visual evaluation after 12 to 14 days
Method in brief: as §2

[17] = tested on: Surinam grass (Brachiaria decumbens); experiment: Test C preemergence; settings: for Plant response rating (0 to 100), Surinam grass: Rate 500 g/ha, visual evaluation after 12 to 14 days
Method in brief: as §2

[18] = Rate 125 g/ha, scale 0 to 100, 0 no effect, 100 complete control
[19] = Rate 500 g/ha, scale 0 to 100, 0 is no effect, 100 is complete control, 13 to 15 days
[20] = preemergence, Rate 62 g/ha, scale 0 to 100
[21] = preemergence, Rate 250 g/ha, scale 0 to 100, 0 no effect, 100 complete control
[22] = Rate 500 g/ha, scale 0 (no effect) to 100 (complete control), 13 to 15 days

CC(C)(C)c1ccn(C2OCN(c3cccc(OC(F)F)c3)C2=O)n1 (centres unmarked) [Compound 133]
50: Plant response rating, Pigweed [13, 20]
80: Plant response rating, Johnsongrass [5, 20]
90: Plant response rating, Foxtail, Giant [9, 20] | Plant response rating (0 to 100), Nutsedge ([15]; preemergence) | Plant response rating, Nutsedge [15, 21]
70: Plant response rating, Nutsedge [15, 20]
0: Plant response rating, Blackgrass [1, 18] | Plant response rating, Blackgrass [1, 19] | Plant response rating, Corn (corn (Zea mays) [2]; [18]) | Plant response rating, Corn (corn (Zea mays) [2]; [19]) | Plant response rating, Velvetleaf [3, 18] | Plant response rating, Wild Oat (wild oat (Avena fatua); [18]) | Plant response rating, Wheat [4, 18] | Plant response rating, Morningglory [7, 18] | Plant response rating, Morningglory [7, 20] | Plant response rating, Sunflower (Sunflower) | Plant response rating, Velvetleaf [12, 20] | Plant response rating, Soybean (soybean (Glycine max); [18]) | Plant response rating, Soybean (soybean (Glycine max); [20]) | Plant response rating (0 to 100), Soybean (soybean (Glycine max); preemergence) | Plant response rating, Soybean (soybean (Glycine max); [21])
30: Plant response rating (0 to 100), Morningglory ([7]; preemergence) | Plant response rating (0 to 100), Velvetleaf ([12]; preemergence)
100: Plant response rating, Johnsongrass [5, 18] | Plant response rating (0 to 100), Johnsongrass ([5]; preemergence) | Plant response rating, Johnsongrass [5, 21] | Plant response rating, Bermudagrass [6, 18] | Plant response rating, Bermudagrass [6, 20] | Plant response rating (0 to 100 where 0 is no effect and 100 is complete control), Bermudagrass ([6]; preemergence) | Plant response rating, Bermudagrass [6, 21] | Plant response rating, Cupgrass, Woolly [8, 18] | Plant response rating, Cupgrass, Woolly [8, 20] | Plant response rating (0 to 100), Cupgrass, Woolly ([8]; preemergence) | Plant response rating, Cupgrass, Woolly [8, 21] | Plant response rating, Foxtail, Giant [9, 18] | Plant response rating (0 to 100), Foxtail, Giant ([9]; preemergence) | Plant response rating, Foxtail, Giant [9, 21] | Plant response rating, Crabgrass [10, 18] | Plant response rating, Crabgrass [10, 20] | Plant response rating (0 to 100), Crabgrass ([10]; preemergence) | Plant response rating, Crabgrass [10, 21] | Plant response rating, Corn (corn (Zea mays) [11]; [20]) | Plant response rating (0 to 100), Corn (corn (Zea mays) [11]; preemergence) | Plant response rating, Corn (corn (Zea mays) [11]; [21]) | Plant response rating, Pigweed [13, 18] | Plant response rating (0 to 100), Pigweed ([13]; preemergence) | Plant response rating, Pigweed [13, 21] | Plant response rating, Goosegrass [14, 18] | Plant response rating, Goosegrass [14, 20] | Plant response rating (0 to 100), Goosegrass ([14]; preemergence) | Plant response rating, Goosegrass [14, 21] | Plant response rating, Lambsquarters [16, 18] | Plant response rating, Lambsquarters [16, 20] | Plant response rating (0 to 100), Lambsquarters ([16]; preemergence) | Plant response rating, Lambsquarters [16, 21] | Plant response rating, Surinam grass [17, 18] | Plant response rating, Surinam grass [17, 20] | Plant response rating (0 to 100), Surinam grass ([17]; preemergence) | Plant response rating, Surinam grass [17, 21]
20: Plant response rating, Morningglory [7, 21] | Plant response rating, Velvetleaf [12, 18] | Plant response rating, Velvetleaf [12, 21]

CCC(CC)c1ccn(C2CCN(c3ccc(F)c(C(F)(F)F)c3)C2=O)n1 (centres unmarked) [Compound 144]
0: Plant response rating, Blackgrass [1, 18] | Plant response rating, Blackgrass [1, 22] | Plant response rating, Corn (corn (Zea mays) [2]; [18]) | Plant response rating, Corn (corn (Zea mays) [2]; [22]) | Plant response rating, Velvetleaf [3, 18] | Plant response rating, Velvetleaf [3, 22] | Plant response rating, Wild Oat (wild oat (Avena fatua); [18]) | Plant response rating, Wild Oat (wild oat (Avena fatua); [22]) | Plant response rating, Wheat [4, 18] | Plant response rating, Wheat [4, 22] | Plant response rating, Johnsongrass [5, 20] | Plant response rating, Morningglory [7, 18] | Plant response rating, Velvetleaf [12, 18] | Plant response rating, Velvetleaf [12, 20] | Plant response rating, Nutsedge [15, 18] | Plant response rating, Nutsedge [15, 20] | Plant response rating (0 to 100), Nutsedge ([15]; preemergence) | Plant response rating, Nutsedge [15, 21] | Plant response rating, Surinam grass [17, 18] | Plant response rating, Surinam grass [17, 20] | Plant response rating, Surinam grass [17, 21]
70: Plant response rating (0 to 100), Soybean (soybean (Glycine max); preemergence) | Plant response rating, Soybean (soybean (Glycine max); [21])
40: Plant response rating, Sunflower (Sunflower)
90: Plant response rating, Johnsongrass [5, 18] | Plant response rating (0 to 100), Surinam grass ([17]; preemergence)
100: Plant response rating (0 to 100), Johnsongrass ([5]; preemergence) | Plant response rating, Johnsongrass [5, 21] | Plant response rating, Bermudagrass [6, 18] | Plant response rating, Bermudagrass [6, 20] | Plant response rating (0 to 100 where 0 is no effect and 100 is complete control), Bermudagrass ([6]; preemergence) | Plant response rating, Bermudagrass [6, 21] | Plant response rating, Cupgrass, Woolly [8, 18] | Plant response rating, Cupgrass, Woolly [8, 20] | Plant response rating (0 to 100), Cupgrass, Woolly ([8]; preemergence) | Plant response rating, Cupgrass, Woolly [8, 21] | Plant response rating, Foxtail, Giant [9, 18] | Plant response rating, Foxtail, Giant [9, 20] | Plant response rating (0 to 100), Foxtail, Giant ([9]; preemergence) | Plant response rating, Foxtail, Giant [9, 21] | Plant response rating, Crabgrass [10, 18] | Plant response rating, Crabgrass [10, 20] | Plant response rating (0 to 100), Crabgrass ([10]; preemergence) | Plant response rating, Crabgrass [10, 21] | Plant response rating, Pigweed [13, 18] | Plant response rating, Pigweed [13, 20] | Plant response rating (0 to 100), Pigweed ([13]; preemergence) | Plant response rating, Pigweed [13, 21] | Plant response rating, Goosegrass [14, 18] | Plant response rating, Goosegrass [14, 20] | Plant response rating (0 to 100), Goosegrass ([14]; preemergence) | Plant response rating, Goosegrass [14, 21] | Plant response rating, Lambsquarters [16, 18] | Plant response rating, Lambsquarters [16, 20] | Plant response rating (0 to 100), Lambsquarters ([16]; preemergence) | Plant response rating, Lambsquarters [16, 21]
60: Plant response rating (0 to 100), Corn (corn (Zea mays) [11]; preemergence)
50: Plant response rating, Corn (corn (Zea mays) [11]; [18]) | Plant response rating, Corn (corn (Zea mays) [11]; [21]) | Plant response rating, Soybean (soybean (Glycine max); [18]) | Plant response rating, Soybean (soybean (Glycine max); [20])
20: Plant response rating (0 to 100), Velvetleaf ([12]; preemergence) | Plant response rating, Velvetleaf [12, 21]
30: Plant response rating (0 to 100), Morningglory ([7]; preemergence) | Plant response rating, Morningglory [7, 21] | Plant response rating, Corn (corn (Zea mays) [11]; [20])
